{
  "source": "paper PMC9924091",
  "about": "(Journal of Medicinal Chemistry, 2023)",
  "key": {"[1]": {"target": "T1, SARS-CoV-2 PL^pro (Severe acute respiratory syndrome coronavirus 2, UniProt P0DTD1)", "T1 construct": "PL^pro papain-like protease", "experiment": "SPE-MS SARS-CoV-2 PL^pro inhibition assay", "format": "biochemical"}, "[2]": {"target": "T2, SARS-CoV-2 M^pro (Severe acute respiratory syndrome coronavirus 2, UniProt P0DTD1)", "details": "M^pro 2.0 μM, inhibitor 10 μM, 20 mM HEPES pH 7.5, 90 min, ambient temperature"}, "[3]": {"system": "SARS-CoV-2 virus (Victoria strain) in VeroE6 cells", "experiment": "microbe, parasite or virus in culture", "format": "cell-based"}, "[4]": {"target": "T2, SARS-CoV-2 M^pro", "format": "biochemical", "design": "M^pro main protease; made in house"}},
  "note": "Like-named read-outs stand apart in the source and are kept apart here.",
  "data": [
    {"molecule": "C#C[C@H](CCSC)NC(=O)[C@@H]1[C@@H]2[C@H](CN1C(=O)[C@@H](NC(=O)C(F)(F)F)C(C)(C)C)C2(C)C", "note": "[Compound 14]", "values": [
      {"measurement": "inhibition of SARS-CoV-2 PL^pro (in words)", "setting": "[1]", "result": "None of the tested M^pro inhibitors inhibited SARS-CoV-2 PL^pro"}
    ]},
    {"molecule": "CC1(C)[C@@H]2[C@@H](C(=O)N[C@H](C#N)C[C@@H]3CCNC3=O)N(C(=O)COc3ccc(C(F)(F)F)cc3)C[C@@H]21", "note": "[Compound 21]", "values": [
      {"measurement": "inhibition of SARS-CoV-2 PL^pro (in words)", "setting": "[1]", "result": "None of the tested M^pro inhibitors inhibited SARS-CoV-2 PL^pro"}
    ]},
    {"molecule": "CC(C)(C)[C@H](NC(=O)C(F)(F)F)C(=O)N1C[C@H]2[C@@H]([C@H]1C(=O)N[C@H](C#Cc1ccccc1)C[C@@H]1CCNC1=O)C2(C)C", "note": "[Compound 27a]", "values": [
      {"measurement": "inhibition of SARS-CoV-2 PL^pro (in words)", "setting": "[1]; SPE-MS PL^pro inhibition assay", "result": "None of the tested M^pro inhibitors inhibited SARS-CoV-2 PL^pro"},
      {"measurement": "covalent reaction with M^pro by protein-observed SPE-MS (in words)", "setting": "[2]", "result": "reacts covalently"}
    ]},
    {"molecule": "CC1(C)[C@@H]2[C@@H](C(=O)N[C@H](C#N)C[C@@H]3CCNC3=O)N(C(=O)COc3ccc(OC(F)(F)F)cc3)C[C@@H]21", "note": "[Compound 20]", "values": [
      {"measurement": "inhibition of SARS-CoV-2 PL^pro (in words)", "setting": "[1]", "result": "None of the tested M^pro inhibitors inhibited SARS-CoV-2 PL^pro"}
    ]},
    {"molecule": "C#C[C@H](C[C@@H]1CCNC1=O)NC(=O)[C@@H]1[C@@H]2[C@H](CN1C(=O)COc1ccc(C(F)(F)F)cc1)C2(C)C", "note": "[Compound 19]", "values": [
      {"measurement": "inhibition of SARS-CoV-2 progression in infected VeroE6 cells (in words)", "setting": "[3]", "result": "did not show any inhibitory activity over the tested concentration range"},
      {"measurement": "inhibition of SARS-CoV-2 PL^pro (in words)", "setting": "[1]", "result": "None of the tested M^pro inhibitors inhibited SARS-CoV-2 PL^pro"}
    ]},
    {"molecule": "CSCC[C@@H](C#N)NC(=O)[C@@H]1[C@@H]2[C@H](CN1C(=O)[C@@H](NC(=O)C(F)(F)F)C(C)(C)C)C2(C)C", "note": "[Compound 15]", "values": [
      {"measurement": "fold less efficient inhibition of SARS-CoV-2 progression in infected VeroE6 cells than nirmatrelvir (1)", "setting": "[3]", "result": "~5", "unit": "fold"},
      {"measurement": "EC50", "setting": "[3]; Severe acute respiratory syndrome coronavirus 2, Vero C1008", "result": "~11.8", "unit": "µM"},
      {"measurement": "IC50", "setting": "[4]", "result": "0.89 ± 0.17", "unit": "µM"},
      {"measurement": "fold less efficient inhibition of isolated M^pro (higher IC50) than alkyne 13", "setting": "[4]", "result": "~6", "unit": "fold"},
      {"measurement": "inhibition of SARS-CoV-2 PL^pro (in words)", "setting": "[1]", "result": "None of the tested M^pro inhibitors inhibited SARS-CoV-2 PL^pro"},
      {"measurement": "IC50", "setting": "[1]; isolated recombinant SARS-CoV-2 PL^pro, SPE-MS, n = 2, mean ± SD", "result": "> 100", "unit": "µM"}
    ]},
    {"molecule": "CC(C)(C)[C@H](NC(=O)C(F)(F)F)C(=O)N1C[C@H]2[C@@H]([C@H]1C(=O)N[C@H](C#Cc1ccc([N+](=O)[O-])cc1)C[C@@H]1CCNC1=O)C2(C)C", "note": "[Compound 27b]", "values": [
      {"measurement": "inhibition of SARS-CoV-2 PL^pro (in words)", "setting": "[1]", "result": "None of the tested M^pro inhibitors inhibited SARS-CoV-2 PL^pro"}
    ]},
    {"molecule": "CC(C)(C)[C@H](NC(=O)C(F)(F)F)C(=O)N1C[C@H]2[C@@H]([C@H]1C(=O)N[C@H](C#CC(F)(F)F)C[C@@H]1CCNC1=O)C2(C)C", "note": "[Compound 28]", "values": [
      {"measurement": "inhibition of SARS-CoV-2 PL^pro (in words)", "setting": "[1]", "result": "None of the tested M^pro inhibitors inhibited SARS-CoV-2 PL^pro"}
    ]},
    {"molecule": "C#C[C@H](C[C@@H]1CCNC1=O)NC(=O)[C@@H]1[C@@H]2[C@H](CN1C(=O)COc1ccc(OC(F)(F)F)cc1)C2(C)C", "note": "[Compound 18]", "values": [
      {"measurement": "inhibition of SARS-CoV-2 progression in infected VeroE6 cells (in words)", "setting": "[3]", "result": "did not show any inhibitory activity over the tested concentration range"},
      {"measurement": "inhibition of SARS-CoV-2 PL^pro (in words)", "setting": "[1]", "result": "None of the tested M^pro inhibitors inhibited SARS-CoV-2 PL^pro"}
    ]},
    {"molecule": "C#C[C@H](C[C@@H]1CCNC1=O)NC(=O)[C@H](CC(C)C)NC(=O)OCc1ccccc1", "note": "[Compound 23]", "values": [
      {"measurement": "inhibition of SARS-CoV-2 progression in infected VeroE6 cells (in words)", "setting": "[3]", "result": "did not show any inhibitory activity over the tested concentration range"},
      {"measurement": "inhibition of SARS-CoV-2 PL^pro (in words)", "setting": "[1]", "result": "None of the tested M^pro inhibitors inhibited SARS-CoV-2 PL^pro"}
    ]}
  ]
}
